# In US20250287945A1, “COMPOSITIONS FOR FUNGAL CONTROL AND RELATED METHODS” (priority 2021, published 2025):
# What was measured:
# Fusarium culmorum = format: cell-based
# Fusarium graminearum = format: cell-based; settings: 22 hours incubation; modified RPMI medium, 25 degrees Celsius; concentration not given
# Phytophthora infestans = format: cell-based; settings: 7 days incubation; modified RPMI medium, 25 degrees Celsius; concentration not given
# Zymoseptoria tritici = format: cell-based
# [1] = tested on: Fusarium conidial suspension; assay: Fusarium viability colorimetric assay (PrestoBlue resazurin); format: cell-based; settings: four replicates, protocol and peptides as third experiment (175 and 375 micromolar), concentration not given
# Procedure: A Fusarium conidial suspension was prepared from a 7-day culture of Fusarium biomass grown on potato dextrose agar for 7 days, and quantified by hemocytometer, as described in Example 4. Solutions of fenpiclonil (Millipore Sigma, Cat. no. 36532) and of the individual peptides were prepared in 50% (w/v) ethanol in water, and tested using a PrestoBlue™ (resazurin) viability colorimetric assay as described in Example 4.
# The Fusarium conidial suspension, peptide or control treatment solution, and potato dextrose broth (Alpha Biosciences, catalogue no. P16-126) were added to each well of a 96-well plate to obtain the desired treatment concentration and 1×10^6 conidia/mL in a final volume of 150 microliters per well. The plates were covered and incubated at 30° C. for 18 hours and 200 rpm. Fifteen microliters of PrestoBlue™ Cell Viability Reagent (Thermofisher Scientific, Cat no. A13262) were added to each well, and the plate was further incubated before measuring fluorescence at 590 nm emission with excitation at 560 nm using a spectrophotometer (BioTek Synergy H1 Microplate Reader, Fischer Scientific, Cat. no. 11-120-533).
# [2] = tested on: Botrytis cinarea (strain CBS 261.71); assay: Botrytis viability colorimetric assay (PrestoBlue resazurin); format: cell-based, Botrytis cinerea; settings: Botrytis, CBS261; 375 micromolar; four replicates; read-out: Percent Inhibition (Botrytis), Mean
# [3] = tested on: Nicotiana benthamiana leaves; assay: Phytotoxicity at the treatment site on detached leaves; format: in vivo; settings: 275 micromolar in 50% ethanol, 100 microliters on leaf quadrant
compound,measurement,setting,value
WHWLQLKPGQPMYRRRRRRRR [SEQ ID NO: 2240],inhibition relative to a control,Fusarium culmorum,≥ 50%
same,inhibition relative to a control,Fusarium graminearum,≥ 50%
same,inhibition relative to a control,Phytophthora infestans,≥ 50%
same,inhibition relative to a control,Zymoseptoria tritici,≥ 50%
"N#Cc1c[nH]cc1-c1cccc(Cl)c1Cl [Fenpiclonil, 4-(2,3-dichlorophenyl)-1H-pyrrole-3-carbonitrile, reference compound]","Percent Inhibition (Fusarium), Experiment 4, Mean",[1]; Experiment 4,82.25%
same,"Percent Inhibition (Fusarium), Experiment 5, Mean",[1]; Experiment 5,79.19%
same,inhibition at 375 µM,[2],75.8%
same,phytotoxicity (tissue necrosis at the treatment site),[3],phytotoxic
